# Patent US5221669A, “Antiviral compositions containing α-cyclodextrin sulfates alone and in combination with other known antiviral agents and glucocorticoids and methods of treating viral infections” (The United States of America as represented by the …, priority 1991, dated 1993)
# “And” between values parts separate entries of the source, which are not always exact repeats. Equal values may be shown once. Read-outs that look alike come from different tables or passages of the source.
# Experiments:
# PMNCs [1] = details: for Viable cells: controls 118 and 106; for % >Increase (viable cells): increase vs control; for % <Decrease (viable cells): decrease vs control
# Procedure: Uninfected PMNCs, drug-treated PMNCs, and drug-treated and virus-infected PMNCs in different experiments were tested for drug toxicity and for the alterations in the numbers of viable cells in response to drug treatment by trypan blue exclusion method.
# To understand the mechanism of virus enhancement and to evaluate the toxicity of the sulphated sugars to PMNCs in culture, cell viability counts were performed on trypan blue-stained cells.
# HIV-1 = HIV-1 replication in PHA-stimulated PMNC cultures, RT method on culture supernatants; details: for Increase in virus production: concentrations of 1.0 μg ml^-1 or less; for Virus-enhancement effect: low drug concentrations
# Procedure: Phytohaemagglutinin stimulated human peripheral blood mononuclear cells (PHA-PMNCs) were exposed to A-CDS and PPS and infected with HIV-1 as follows. PMNCs stimulated with 10.0 μg ml^-1 of PHA were further propagated in Medium B (RPMI-1640 medium with 10% fetal calf serum, 10% T-cell growth factor, and 1:500 goat antibody to human Interferon) at 10^8 cells ml^-1 in 20 ml and were exposed to different concentrations of drugs and simultaneously infected with 10000 c.p.m. ml^-1 of HIV-1 in 20 ml/culture flask. Cultures were tested for the quantity of cell-free virus in the culture supernatants using the RT method. RT activity in the disrupted virions was tested by using exogenous template poly (rA).(dT)12-18 as described (Anand et al., (1988), supra. The reaction mixture consisted of 50mM Tris-hydrochloride (pH 7.5), 5mM dithiothreitol 100mM KCI, 10mM MgClhd 2, 10 μM [^3 H]-TTP, Triton X-100 containing poly (rA).(dT)12-18 at 30 μg ml^-1 (mcg ml^-1). The reaction mixture was incubated at 37° C. for 2 hours, and [^3 H]-TTP incorporated into polymers was precipitated with 10% trichloroacetic acid, collected on a glass fibre filter, and counted in an LKB 1219 Rackbeta scintillation counter. Various cultures in the experiment are represented: .quadrature.-.quadrature., A-CDS; .smallcircle.-.smallcircle., PPS; .smallcircle.-.smallcircle., B-CDS. The values are means of two determinations tested in two separate experiments. The range of variation was no greater than 15%.
# After two days, PMNCs were infected and studied for the change in virus replication in the presence of drugs and for the direct effect of drugs on cell multiplication.
# PMNCs stimulated with PHA were further propagated in Medium B(RPMI-1640 with 10% fetal calf serum. 10% T-cell growth factor and 1:500 diluted goat antibody to human interferon). […] In general, four hours after injection and drug treatment, cultures were centrifuged to remove the extracellular virus and the cells were resuspended in fresh Medium B and replenished with appropriate drug concentrations. The percent change in virus replication was calculated as (x-c)/c×100, where x represented the experimental value and c represented the control value.
# Reduction in RT activity was a reflection of the inhibition of virus production and therefore virus replication. The virus was prepared from the drug-treated and untreated culture supernatants.
# Cultures were infected with virus and treated with the drugs simultaneously and were tested to evaluate the amount of virus production by the reverse transcriptase (RT) method.
# [2] = target: T1, reverse transcriptase enzyme of detergent-disrupted LAV-1BRU isolate (Human immunodeficiency virus type 1 (BRU ISOLATE), UniProt P03367); assay: Direct effect on reverse transcriptase enzyme activity of detergent-disrupted virus; assay type: biochemical; details: for Inhibition of RT enzyme activity: concentrations tested up to 25.0 μg ml^-1; for RT activity: control 180; for % >Increase (RT activity): increase vs control; for % <Decrease (RT activity): decrease vs control
# T1 construct: poly(rA).oligo(dT) template
# From the text: Microb. Agents Chemother. 32:684-688 (1988).
# The direct effect of A-CDS, B-CDS and PPS on the reverse transcriptase enzyme activity by treating a detergent-disrupted LAV-1BRU isolate with these drugs and subjecting it to the RT method was examined.
# PMNCs [3] = assay: Cell proliferation (cell count) with hydrocortisone phosphate and α-cyclodextrin sulfate; assay type: cell-based, human
# From the text: Anti-HIV Effects of Sulphated Sugars in Presence of Glucocorticoids. HIV infections are at some later stages invariably complicated by pathologies which involve neovascularization, particularly those associated with Kaposi's sarcoma. Previously, Folkman et al., Science 243, 1490-1493, 1989, observed that B-CDS stimulates this particular pathology, but that this side-effect can be suppressed by glucocorticoids. […] Thus, pathological neovascularization can be avoided without comprising the anti-HIV effects.
# HIV-1 p24 antigen = assay: p24 antigen ELISA in supernatant-free lysed cells; assay type: cell-based; details: supernatant-free lysed cells after exposure
# From the text: Intracellular changes in the amount of HIV-1 following exposure to PPS were studied by measuring p24 antigen in the supernatant-free lysed cells.
# [4] = α-cyclodextrin sulfate 2.5 μg/ml alone
# [5] = α-cyclodextrin sulfate 5.0 μg/ml alone
# [6] = α-cyclodextrin sulfate 10.0 μg/ml alone
# [7] = hydrocortisone phosphate 5 μg/ml alone
molecule,measurement,setting,value
β-cyclodextrin sulphate [B-CDS],Viable cells,PMNCs [1]; conc. 0.1 μg ml^-1,188 10^4 ml^-1
same,% >Increase (viable cells),PMNCs [1]; conc. 0.1 μg ml^-1,67%
same,Viable cells,PMNCs [1]; conc. 0.5 μg ml^-1,140 10^4 ml^-1
same,% >Increase (viable cells),PMNCs [1]; conc. 0.5 μg ml^-1,25%
same,Inhibition of HIV-1 replication in PMNC cultures,HIV-1,potent inhibitors
same,Replication <% decrease,HIV-1; B-CDS 2.5 μg ml^-1 alone,40.1%
same,RT activity,"HIV-1; B-CDS 2.5 μg ml^-1 alone, control 187",112 c.p.m. × 10^3 ml^-1
same,Increase in virus production,HIV-1,up to a three-fold increase in virus production
same,Virus-enhancement effect,HIV-1,virus-enhancement effect
same,Inhibition of RT enzyme activity,[2],No inhibition
"Cc1cn([C@H]2C[C@H](N=[N+]=[N-])[C@@H](CO)O2)c(=O)[nH]c1=O [AZT, 3'-azido-2',3'-dideoxythy-midine]",% <Decrease (viable cells),PMNCs [1]; 10nM,35%
same,Viable cells,PMNCs [1],72 10^4 ml^-1
same,Replication (fold decrease),HIV-1; AZT 10 nM alone,1.2 fold decrease
same,RT activity,"HIV-1; AZT 10 nM alone, control 164",134 c.p.m. × 10^3 ml^-1
.varies.-cyclodextrin sulphate [A-CDS],Cell Count in million per mL,PMNCs [3]; [4],1.2 million per mL
same,Cell Count in million per mL,PMNCs [3]; [5],1.3 million per mL
same,Cell Count in million per mL,PMNCs [3]; [6],1.5 million per mL
same,Viable cells,PMNCs [1]; conc. 0.1 μg ml^-1,140 10^4 ml^-1
same,% >Increase (viable cells),PMNCs [1]; conc. 0.1 μg ml^-1,25%
same,Viable cells,PMNCs [1]; conc. 0.5 μg ml^-1,128 10^4 ml^-1
same,% >Increase (viable cells),PMNCs [1]; conc. 0.5 μg ml^-1,14%
same,Inhibition of HIV-1 replication in PMNC cultures,HIV-1,potent inhibitors
same,Replication (fold decrease),HIV-1; A-CDS 0.5 μg ml^-1 alone,2.8 fold decrease
same,RT activity,"HIV-1; A-CDS 0.5 μg ml^-1 alone, control 164",57 c.p.m. × 10^3 ml^-1
same,Replication (fold decrease),HIV-1; A-CDS 1.5 μg ml^-1 alone,4.9 fold decrease
same,RT activity,"HIV-1; A-CDS 1.5 μg ml^-1 alone, control 164",33 c.p.m. × 10^3 ml^-1
same,Relative anti-HIV potency from the dose-response relationship,"HIV-1; PMNC cultures, infected and treated simultaneously","more potent in anti-HIV action than PPS, B-CDS and DS"
same,Virus-enhancement effect,HIV-1,lacks the virus-enhancement effect
same,Inhibition of HIV-1 reverse transcriptase activity (%),HIV-1; α-cyclodextrin sulfate 0.5 μg/ml alone,77%
same,Inhibition of HIV-1 reverse transcriptase activity (%),HIV-1; α-cyclodextrin sulfate 1.0 μg/ml alone,72%
same,Inhibition of HIV-1 reverse transcriptase activity (%),HIV-1; [4],80%
same,Inhibition of HIV-1 reverse transcriptase activity (%),HIV-1; [5],83%
same,Inhibition of HIV-1 reverse transcriptase activity (%),HIV-1; [6],91%
same,Inhibition of RT enzyme activity,[2],No inhibition
Pentosan polysulfate [PPS],Viable cells,PMNCs [1]; conc. 0.1 μg ml^-1,268 10^4 ml^-1
same,% >Increase (viable cells),PMNCs [1]; conc. 0.1 μg ml^-1,141%
same,Viable cells,PMNCs [1]; conc. 0.5 μg ml^-1,202 10^4 ml^-1
same,% <Decrease (viable cells),PMNCs [1]; conc. 0.5 μg ml^-1,80%
same,"Lymphoproliferative effect, increase in cell numbers relative to control cultures",PMNCs [1]; particularly at low drug concentrations,more lymphoproliferative activity than B-CDS and A-CDS
same,Protective effect on infected cells from HIV-associated cytopathic effect,"PMNCs [1]; virus-infected PMNCs, relative to virus-infected drug-free cultures",more than A-CDS and B-CDS
same,Inhibition of HIV-1 replication in PMNC cultures,HIV-1,potent inhibitors
same,Replication <% decrease,HIV-1; PPS 2.0 μg ml^-1 alone,77.0%
same,RT activity,"HIV-1; PPS 2.0 μg ml^-1 alone, control 187",43 c.p.m. × 10^3 ml^-1
same,Increase in virus production,HIV-1,up to a three-fold increase in virus production
same,Virus-enhancement effect,HIV-1,virus-enhancement effect
same,Enhancement of the RT reaction,[2]; 0.1 and 0.5 μg ml^-1,enhancement of the reaction
same,RT activity,[2]; drug conc. 0.1 μg ml^-1,194 c.p.m. × 10^3 ml^-1
same,% >Increase (RT activity),[2]; drug conc. 0.1 μg ml^-1,7.7%
same,RT activity,[2]; drug conc. 0.5 μg ml^-1,219 c.p.m. × 10^3 ml^-1
same,% >Increase (RT activity),[2]; drug conc. 0.5 μg ml^-1,21.6%
same,RT activity,[2]; drug conc. 2.0 μg ml^-1,163 c.p.m. × 10^3 ml^-1
same,% <Decrease (RT activity),[2]; drug conc. 2.0 μg ml^-1,9.4%
same,RT activity,[2]; drug conc. 4.0 μg ml^-1,22 c.p.m. × 10^3 ml^-1
same,% <Decrease (RT activity),"[2]; drug conc. 4.0 μg ml^-1, 120 min",87% and 87.7%
same,RT activity,[2]; drug conc. 5.0 μg ml^-1,17 c.p.m. × 10^3 ml^-1
same,RT activity,[2]; drug conc. 6.0 μg ml^-1,17 c.p.m. × 10^3 ml^-1
same,% <Decrease (RT activity),"[2]; drug conc. 6.0 μg ml^-1, 120 min",90.5%
same,RT activity,[2]; drug conc. 8.0 μg ml^-1,9 c.p.m. × 10^3 ml^-1
same,% <Decrease (RT activity),"[2]; drug conc. 8.0 μg ml^-1, 120 min",95.0%
same,RT activity,[2]; drug conc. 10.0 μg ml^-1,7 c.p.m. × 10^3 ml^-1
same,% <Decrease (RT activity),"[2]; drug conc. 10.0 μg ml^-1, 120 min",97.7%
same,RT activity,[2]; drug conc. 15.0 μg ml^-1,4 c.p.m. × 10^3 ml^-1
same,% <Decrease (RT activity),"[2]; drug conc. 15.0 μg ml^-1, 120 min",97.7%
same,RT activity,[2]; drug conc. 20.0 μg ml^-1,2 c.p.m. × 10^3 ml^-1
same,% <Decrease (RT activity),"[2]; drug conc. 20.0 μg ml^-1, 120 min",99.8%
same,RT activity,[2]; drug conc. 25.0 μg ml^-1,1 c.p.m. × 10^3 ml^-1
same,% <Decrease (RT activity),"[2]; drug conc. 25.0 μg ml^-1, 120 min",99.4%
same,HIV-specific p24 in the cells,HIV-1 p24 antigen,decrease in HIV-specific p24 in the cells
C[C@]12CCC(=O)C=C1CC[C@@H]1[C@@H]2[C@@H](O)C[C@@]2(C)[C@H]1CC[C@]2(O)C(=O)COP(=O)(O)O [hydrocortisone phosphate],Cell Count in million per mL,PMNCs [3]; [7],1.2 million per mL and 1.0 million per mL
same,Inhibition of HIV-1 reverse transcriptase activity (%),HIV-1; [7],39% and 20%
dextran sulphate [DS],Viable cells,PMNCs [1]; conc. 0.1 μg ml^-1,170 10^4 ml^-1
same,% <Decrease (viable cells),PMNCs [1]; conc. 0.1 μg ml^-1,51%
same,Viable cells,PMNCs [1]; conc. 0.5 μg ml^-1,90 10^4 ml^-1
same,% >Increase (viable cells),PMNCs [1]; conc. 0.5 μg ml^-1,19%
same,Virus-enhancement effect,HIV-1,virus-enhancement effect
